From patent US20230129359A1, “MUSCARINIC RECEPTOR 4 ANTAGONISTS AND METHODS OF USE” (Neurocrine Biosciences, Inc., priority 2020, published 2023) come the findings set out here.

Structures are written as SMILES. Bounds are passed on as bounds.

The experiment concerns the target T1, human M4 receptor (Homo sapiens, UniProt P08173).
T1 construct: expressed in transfected cells; host or cells: CHO cells
T1 sequence (P08173 1-479): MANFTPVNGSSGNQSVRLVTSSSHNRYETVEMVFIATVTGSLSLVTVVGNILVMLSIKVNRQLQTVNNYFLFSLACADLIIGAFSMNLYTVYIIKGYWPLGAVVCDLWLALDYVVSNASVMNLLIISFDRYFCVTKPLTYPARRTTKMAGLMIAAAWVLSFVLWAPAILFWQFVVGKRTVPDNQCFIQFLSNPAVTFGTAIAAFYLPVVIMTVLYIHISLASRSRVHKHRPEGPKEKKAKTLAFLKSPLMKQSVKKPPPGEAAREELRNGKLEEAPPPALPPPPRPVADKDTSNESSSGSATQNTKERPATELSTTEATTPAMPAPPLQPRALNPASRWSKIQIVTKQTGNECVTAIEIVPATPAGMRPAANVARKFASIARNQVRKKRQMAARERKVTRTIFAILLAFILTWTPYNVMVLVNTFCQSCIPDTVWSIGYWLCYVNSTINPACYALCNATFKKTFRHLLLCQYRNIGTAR
Put plainly: Radioligand ([3H]N-methylscopolamine) binding assay, membranes from CHO cells expressing human M4 receptor. The settings on record: Ki against human M4 receptor; membranes from CHO cells; tritiated N-methylscopolamine 1.5 nM; read-out: K. The method, then: Binding affinity (Ki) for the compounds was measured by inhibition of radioligand binding to membranes from CHO cells expressing human M4 receptor. Membranes were prepared by nitrogen cavitation and differential centrifugation as previously described (Hoare et al., Mol. Pharmacol. 2003 March; 63(3): 751-65). The radioligand employed was tritiated N-methylscopolamine, used at a concentration of 1.5 nM. A dose-response of twelve concentrations of compound was used, ranging from […]. The assay buffer was 50 mM HEPES, 100 mM NaCl, 5 mM MgCl2, 1 mM ethylenediaminetetraacetic acid, pH-adjusted to pH 7.4. Membranes, radioligand and compound were incubated together for 90 minutes at 37° C., in a total volume of 150 μL in a 96-well plate. Receptor-bound radioligand was then collected by harvesting the assay over glass fiber filters pretreated with polyethylenimine to trap the cell membranes, using rapid vacuum filtration. Harvesting and radioactivity counting was conducted as previously described (see, e.g., Hoare et al., Mol. Pharmacol. 2003 63(3):751-65); Erratum at Mol. Pharmacol. 2005 July; 68(1): 260).
Turning to `C[C@@H]1CN(c2ncc(C(F)(F)F)cn2)[C@@H](C)CN1C(=O)NC1CC2(C1)CN(Cc1ccccc1)C2` [Compound 1, (2R,5S)—N-{2-Benzyl-2-azaspiro[3.3]heptan-6-yl}-2,5-dimethyl-4-[5-(trifluoromethyl)pyrimidin-2-yl]piperazine-1-carboxamide], the Ki is under 10 nM. As to `C[C@H]1CN(c2ncc(C(F)(F)F)cn2)CCN1C(=O)NC1CC2(C1)CN(Cc1ccccc1)C2` [Compound 5, (2S)-N-{2-benzyl-2-azaspiro[3.3]heptan-6-yl}-2-methyl-4-[5-(trifluoromethyl)pyrimidin-2-yl]piperazine-1-carboxamide], the Ki is 10 to 100 nM. Under `C[C@H]1CN(C(=O)NC2CC3(C2)CN(Cc2ccccc2)C3)CCN1c1ncc(C(F)(F)F)cn1` [Compound 6, (3S)-N-{2-benzyl-2-azaspiro[3.3]heptan-6-yl}-3-methyl-4-[5-(trifluoromethyl)pyrimidin-2-yl]piperazine-1-carboxamide] stands 10 to 100 nM. Under `C[C@@H]1CN(c2ncc(C(F)(F)F)cn2)CCN1C(=O)NC1CC2(C1)CN(Cc1ccccc1)C2` [Compound 7, (2R)-N-{2-benzyl-2-azaspiro[3.3]heptan-6-yl}-2-methyl-4-[5-(trifluoromethyl)pyrimidin-2-yl]piperazine-1-carboxamide] stands 10 to 100 nM; under `C[C@@H]1CN(c2ccc(F)c(C#N)c2)CCN1C(=O)NC1CC2(C1)CN(Cc1ccccc1)C2` [Compound 12, (2R)-N-{2-benzyl-2-azaspiro[3.3]heptan-6-yl}-4-(3-cyano-4-fluorophenyl)-2-methylpiperazine-1-carboxamide], 10 to 100 nM; under `C[C@@H]1CN(c2ccc(OC(F)(F)F)c(C#N)c2)CCN1C(=O)NC1CC2(C1)CN(Cc1ccccc1)C2` [Compound 13, (2R)-N-{2-benzyl-2-azaspiro[3.3]heptan-6-yl}-4-[3-cyano-4-(trifluoromethoxy)phenyl]-2-methylpiperazine-1-carboxamide], under 10 nM. In the case of `C[C@@H]1CN(c2cnc(C(F)(F)F)cn2)CCN1C(=O)NC1CC2(C1)CN(Cc1ccccc1)C2` [Compound 22, (2R)-N-{2-benzyl-2-azaspiro[3.3]heptan-6-yl}-2-methyl-4-[5-(trifluoromethyl)pyrazin-2-yl]piperazine-1-carboxamide], the Ki was 100 to 1000 nM. Under `C[C@@H]1CN(c2ncc(C#N)cn2)[C@@H](C)CN1C(=O)NC1CC2(C1)CN(Cc1ccccc1)C2` [Compound 26, (2R,5S)-N-{2-benzyl-2-azaspiro[3.3]heptan-6-yl}-4-(5-cyanopyrimidin-2-yl)-2,5-dimethylpiperazine-1-carboxamide] stands 10 to 100 nM; under `C[C@@H]1CN(c2cnc(C(F)(F)F)cn2)[C@@H](C)CN1C(=O)NC1CC2(C1)CN(Cc1ccccc1)C2` [Compound 35, (2R,5S)-N-{2-benzyl-2-azaspiro[3.3]heptan-6-yl}-2,5-dimethyl-4-[5-(trifluoromethyl)pyrazin-2-yl]piperazine-1-carboxamide], 10 to 100 nM; under `C[C@@H]1CN(C(=O)NC2CC3(C2)CN(Cc2ccccc2)C3)[C@@H](C)CN1c1ncc(C(F)(F)F)cn1` [Compound 36, (2S,5R)-N-{2-benzyl-2-azaspiro[3.3]heptan-6-yl}-2,5-dimethyl-4-[5-(trifluoromethyl)pyrimidin-2-yl]piperazine-1-carboxamide], 10 to 100 nM.

As for `C[C@@H]1CN(C(=O)NC2CC3(C2)CN(Cc2ccccc2)C3)[C@@H](C)CN1c1cnc(C(F)(F)F)cn1` [Compound 37, (2S,5R)-N-{2-benzyl-2-azaspiro[3.3]heptan-6-yl}-2,5-dimethyl-4-[5-(trifluoromethyl)pyrazin-2-yl)piperazine-1-carboxamide], the Ki was 10 to 100 nM. Turning to `C[C@@H]1CN(c2ncc(C(F)(F)F)cn2)[C@H](C)CN1C(=O)NC1CC2(C1)CN(Cc1ccccc1)C2` [Compound 38, (2R,5R)-N-{2-benzyl-2-azaspiro[3.3]heptan-6-yl}-2,5-dimethyl-4-[5-(trifluoromethyl)pyrimidin-2-yl]piperazine-1-carboxamide], the Ki lay in the range of 10 to 100 nM.

As to `C[C@@H]1CN(c2cc(F)c(F)c(F)c2)CCN1C(=O)NC1CC2(C1)CN(Cc1ccccc1)C2` [Compound 44, (2R)-N-{2-benzyl-2-azaspiro[3.3]heptan-6-yl}-2-methyl-4-(3,4,5-trifluorophenyl)piperazine-1-carboxamide], the Ki was 10 to 100 nM. On to `C[C@@H]1CN(c2cc(F)c(F)c(F)c2)C[C@H](C)N1C(=O)NC1CC2(C1)CN(Cc1ccccc1)C2` [Compound 45, (2R,6S)-N-{2-benzyl-2-azaspiro[3.3]heptan-6-yl}-2,6-dimethyl-4-(3,4,5-trifluroophenyl)piperazine-1-carboxamide], for which the Ki is under 10 nM.

With `C[C@@H]1CN(c2ccc(C(F)(F)F)cc2)C[C@H](C)N1C(=O)NC1CC2(C1)CN(Cc1ccccc1)C2` [Compound 47, (2R,6S)-N-{2-benzyl-2-azaspiro[3.3]heptan-6-yl}-2,6-dimethyl-4-[4-(trifluoromethyl)phenyl]pipera-zine-1-carboxamide], the Ki was under 10 nM. Under `C[C@@H]1CN(c2ccc(C(F)(F)F)cc2)C[C@@H](C)N1C(=O)NC1CC2(C1)CN(Cc1ccccc1)C2` [Compound 51, (2R,6R)-N-{2-benzyl-2-azaspiro[3.3]heptan-6-yl}-2,6-dimethyl-4-[4-(trifluoromethyl)phenyl]pipera-zine-1-carboxamide] stands under 10 nM; under `C[C@@H]1CN(c2cnc(C(F)(F)F)cn2)C[C@H](C)N1C(=O)NC1CC2(C1)CN(Cc1ccccc1)C2` [Compound 62, (2R,6S)—N-{2-Benzyl-2-azaspiro[3.3]heptan-6-yl}-2,6-dimethyl-4-[5-(trifluoromethyl)pyrazin-2-yl]piperazine-1-carboxamide], 10 to 100 nM; under `C[C@@H]1CN(c2cnc(C(F)(F)F)cn2)C[C@@H](C)N1C(=O)NCC1CC2(C1)CN(Cc1ccccc1)C2` [Compound 63, (2R,6R)-N-({2-benzyl-2-azaspiro[3.3]heptan-6-yl}methyl)-2,6-dimethyl-4-[5-(trifluoromethyl)pyrazin-2-yl]piperazine-1-carboxamide], 100 to 1000 nM. For the compound `C[C@@H]1CN(c2cnc(C(F)(F)F)cn2)C[C@@H](C)N1C(=O)NC1CC2(C1)CN(Cc1ccccc1)C2` [Compound 64, (2R,6R)-N-{2-benzyl-2-azaspiro[3.3]heptan-6-yl}-2,6-dimethyl-4-[5-(trifluoromethyl)pyrazin-2-yl]piperazine-1-carboxamide], the Ki lay in the range of 100 to 1000 nM.

As to `C[C@@H]1CN(c2ncc(C(F)(F)F)cn2)C[C@@H](C)N1C(=O)NC1CC2(C1)CN(Cc1ccccc1)C2` [Compound 65, (2R,6R)-N-{2-benzyl-2-azaspiro[3.3]heptan-6-yl}-2,6-dimethyl-4-[5-(trifluoromethyl)pyrimidin-2-yl]piperazine-1-carboxamide], the Ki is under 10 nM.

As to `C[C@@H]1CN(c2ncc(C#N)cn2)C[C@H](C)N1C(=O)NC1CC2(C1)CN(Cc1ccccc1)C2` [Compound 66], the Ki is 100 to 1000 nM. As for `C[C@@H]1CN(c2cnc(C(F)(F)F)cn2)C[C@H](C)N1C(=O)NCC1CC2(C1)CN(Cc1ccccc1)C2` [Compound 67, (2R,6S)-N-({2-benzyl-2-azaspiro[3.3]hpetan-6-yl}methyl)-2,6-dimethyl-4-[5-(trifluoromethyl)pyrazin-2-yl]piperazine-1-carboxamide], the Ki lay in the range of 100 to 1000 nM.
